Measured values from PubChem BioAssay AID1963864 (Molecular Pharmacology Branch, DTP, NCI, 2024).

Test system: KRAS PDC multicell spheroid viability
Assay: Anticancer human tumor 521955-158-R6-J3-PDC patient-derived pancreatic carcinoma cell line growth inhibition [KRAS2]
Conditions: for IC50: curve of first compound; for viability, T/C: stronger effect = lower value
Outline: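 Combination screen of spheroid viability in tumor-cell co-cultures with endothelial (HUVEC) and mesenchymal stem cell stroma. Each agent was tested in half-log dilutions, topping at clinical Cmax or at 10 microM without a known Cmax.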

[1] = second compound 0.1 µM, first compound 0.0316 µM
[2] = second compound 0.1 µM, first compound 0.1 µM
[3] = second compound 0.316 µM, first compound 0.0316 µM
[4] = second compound 0.316 µM, first compound 0.1 µM
[5] = second compound 1 µM, first compound 0.0316 µM
[6] = second compound 1 µM, first compound 0.1 µM
[7] = second compound 3.16 µM, first compound 0.0316 µM
[8] = second compound 3.16 µM, first compound 0.1 µM
[9] = second compound 10 µM, first compound 0.0316 µM
[10] = second compound 10 µM, first compound 0.1 µM
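Note: drug exposure lasted seven days.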
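Throughout, for viability, T/C: 100% = DMSO vehicle wells and lower means fewer viable cells.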

COc1cc2nccc(Oc3ccc(NC(=O)C4(C(=O)Nc5ccc(F)cc5)CC4)cc3)c2cc1OC + COc1cc2nc(C)nc(NC(C)c3cc(N)cc(C(F)(F)F)c3)c2cc1OC1CCOC1
IC50 (second compound 0.1 µM): > 10 µM | IC50 (second compound 0.316 µM): > 10 µM | IC50 (second compound 1 µM): > 10 µM | IC50 (second compound 3.16 µM): > 10 µM | IC50 (second compound 10 µM): < 0.0316 µM | viability, T/C [1]: 89.3% | viability, T/C [2]: 91.9% | viability, T/C (second compound 0.1 µM, first compound 0.316 µM): 78.7% | viability, T/C (second compound 0.1 µM, first compound 1 µM): 91.3% | viability, T/C (second compound 0.1 µM, first compound 3.16 µM): 101% | viability, T/C (second compound 0.1 µM, first compound 10 µM): 90.2% | viability, T/C [3]: 93.3% | viability, T/C [4]: 97.2% | viability, T/C (second compound 0.316 µM, first compound 0.316 µM): 90.1% | viability, T/C (second compound 0.316 µM, first compound 1 µM): 90.9% | viability, T/C (second compound 0.316 µM, first compound 3.16 µM): 97.5% | viability, T/C (second compound 0.316 µM, first compound 10 µM): 95.2% | viability, T/C [5]: 79.8% | viability, T/C [6]: 84.4% | viability, T/C (second compound 1 µM, first compound 0.316 µM): 83.5% | viability, T/C (second compound 1 µM, first compound 1 µM): 88.1% | viability, T/C (second compound 1 µM, first compound 3.16 µM): 103% | viability, T/C (second compound 1 µM, first compound 10 µM): 78.7% | viability, T/C [7]: 70.5% | viability, T/C [8]: 73.9% | viability, T/C (second compound 3.16 µM, first compound 0.316 µM): 70.8% | viability, T/C (second compound 3.16 µM, first compound 1 µM): 72.8% | viability, T/C (second compound 3.16 µM, first compound 3.16 µM): 89.5% | viability, T/C (second compound 3.16 µM, first compound 10 µM): 53.6% | viability, T/C [9]: 49.1% | viability, T/C [10]: 11.8% | viability, T/C (second compound 10 µM, first compound 0.316 µM): 18.1% | viability, T/C (second compound 10 µM, first compound 1 µM): 27.6% | viability, T/C (second compound 10 µM, first compound 3.16 µM): 2.28% | viability, T/C (second compound 10 µM, first compound 10 µM): 1.88%

Cn1ncnc1[C@H]1c2n[nH]c(=O)c3cc(F)cc(c23)N[C@@H]1c1ccc(F)cc1 + COc1cc2nc(C)nc(NC(C)c3cc(N)cc(C(F)(F)F)c3)c2cc1OC1CCOC1
IC50 (second compound 0.1 µM): > 0.1 µM | IC50 (second compound 0.316 µM): > 0.1 µM | IC50 (second compound 1 µM): > 0.1 µM | IC50 (second compound 3.16 µM): > 0.1 µM | IC50 (second compound 10 µM): < 0.000316 µM | viability, T/C (second compound 0.1 µM, first compound 0.000316 µM): 96.2% | viability, T/C (second compound 0.1 µM, first compound 0.001 µM): 94.9% | viability, T/C (second compound 0.1 µM, first compound 0.00316 µM): 86.8% | viability, T/C (second compound 0.1 µM, first compound 0.01 µM): 87.8% | viability, T/C [1]: 94% | viability, T/C [2]: 93.1% | viability, T/C (second compound 0.316 µM, first compound 0.000316 µM): 90.5% | viability, T/C (second compound 0.316 µM, first compound 0.001 µM): 92.6% | viability, T/C (second compound 0.316 µM, first compound 0.00316 µM): 86.7% | viability, T/C (second compound 0.316 µM, first compound 0.01 µM): 87.8% | viability, T/C [3]: 87.3% | viability, T/C [4]: 84.2% | viability, T/C (second compound 1 µM, first compound 0.000316 µM): 83.2% | viability, T/C (second compound 1 µM, first compound 0.001 µM): 78.3% | viability, T/C (second compound 1 µM, first compound 0.00316 µM): 80.5% | viability, T/C (second compound 1 µM, first compound 0.01 µM): 86.6% | viability, T/C [5]: 82.3% | viability, T/C [6]: 82.6% | viability, T/C (second compound 3.16 µM, first compound 0.000316 µM): 68.2% | viability, T/C (second compound 3.16 µM, first compound 0.001 µM): 73.9% | viability, T/C (second compound 3.16 µM, first compound 0.00316 µM): 71.5% | viability, T/C (second compound 3.16 µM, first compound 0.01 µM): 72.3% | viability, T/C [7]: 71.8% | viability, T/C [8]: 74.9% | viability, T/C (second compound 10 µM, first compound 0.000316 µM): 23.4% | viability, T/C (second compound 10 µM, first compound 0.001 µM): 27.8% | viability, T/C (second compound 10 µM, first compound 0.00316 µM): 9.47% | viability, T/C (second compound 10 µM, first compound 0.01 µM): 25.1% | viability, T/C [9]: 8.29% | viability, T/C [10]: 16%
